Reference: patent US10729738B2, “Hindered disulfide drug conjugates” (priority 2015, dated 2020)
Where a SMILES comes first, the peptide text is derived from it. [ ]: non-standard residue; d: D form. The star is where a group is joined. X14 = CC(C)(COC(=O)*)SSc1nc2cc([N+](=O)[O-])ccc2[nH]1; Dolaproine = CO[C@@H]([C@@H]1CCCN1)[C@@H](C)C(=O)O; X22 = CC(C)(COC(=O)*)SSc1nc2cccc(C(=O)O)c2[nH]1; Dil = CC[C@H](C)[C@H](NC)[C@@H](CC(=O)O)OC; X16 = CN(C)C(=O)c1cnccc1SSC(C)(C)COC(=O)*; X12 = Cn1c(C(=O)O)cnc1SSC(C)(C)COC(=O)*; X13 = CC(C)(COC(=O)*)SSc1nc2cnccc2[nH]1; X17 = Cn1c(SSC(C)(C)COC(=O)*)nc2ccccc21; X19 = Cn1cc(C(=O)O)nc1SSC(C)(C)COC(=O)*; X2 = C[C@@H](N*)[C@@H](O)c1ccccc1; X21 = CC(C)(COC(=O)*)SSc1ncc[nH]1; X20 = Cn1cnnc1SSC(C)(C)COC(=O)*; X18 = CC(C)(COC(=O)*)SSC(=N)N; NMeV = CN[C@H](C(=O)O)C(C)C

How the values were obtained:
[1] = target: human serum albumin Cys-34 (Homo sapiens, UniProt P02768); assay: Conjugation of activated disulfide-MMAE molecules to human serum albumin (Conjugate Ratio, LC/MS); conditions: disulfide MMAE compound at 10 molar equivalents relative to HSA, 75 mM Tris pH 8.5, ~16 hours at room temperature
human serum albumin Cys-34, sequence (P02768 25-609): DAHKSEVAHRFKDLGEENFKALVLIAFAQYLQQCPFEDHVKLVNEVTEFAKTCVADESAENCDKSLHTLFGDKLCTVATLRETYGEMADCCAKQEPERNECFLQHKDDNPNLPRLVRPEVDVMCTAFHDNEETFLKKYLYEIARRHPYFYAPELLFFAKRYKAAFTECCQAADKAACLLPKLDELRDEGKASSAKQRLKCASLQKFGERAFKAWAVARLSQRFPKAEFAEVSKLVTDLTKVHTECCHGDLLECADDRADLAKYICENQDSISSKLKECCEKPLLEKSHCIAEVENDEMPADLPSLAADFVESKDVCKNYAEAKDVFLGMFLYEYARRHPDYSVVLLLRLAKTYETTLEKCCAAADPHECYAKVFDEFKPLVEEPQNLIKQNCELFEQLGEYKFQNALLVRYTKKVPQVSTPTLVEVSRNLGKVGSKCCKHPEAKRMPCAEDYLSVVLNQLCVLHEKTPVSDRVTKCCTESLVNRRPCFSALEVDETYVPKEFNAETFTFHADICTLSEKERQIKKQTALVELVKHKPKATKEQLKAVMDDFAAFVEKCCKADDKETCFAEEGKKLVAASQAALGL
Method: In a first evaluation, MMAE was conjugated to human serum albumin (HSA). […] This Cys residue is blocked as a mixed disulfide with Cys or glutathione, preventing complete conjugation of other molecules to this residue. […] Conjugate reactions were analyzed by LC/MS. The extent of the expected MMAE-HSA conjugate formed during the reaction is represented by the “Conjugate Ratio”, measured by dividing the abundance of the MS peak for the MMAE-HSA conjugate by the sum total abundance of all peaks observed. The ideal value for the Conjugate Ratio is 1.0. The results are reported in table 31 below wherein the wavy line for the leaving group represents the point of attachment to the disulfide bond, and “HSA CR” refers to human serum albumin conjugate ratio.

[2] = target: T1, penetratin (AntP) peptide (Drosophila melanogaster, UniProt P02833); assay: Conjugation of activated disulfide-MMAE molecules to penetratin (AntP) peptide (% Product); conditions: peptide 25 uM, disulfide MMAE 5 equivalents, 75 mM Tris pH 8.5 and 10% DMF, ~16 hours at room temperature, UV peak area
T1 construct: C-terminal amide (CONH2); made in house; host or cells: chemical synthesis (Fmoc solid-phase peptide synthesis)
Method: In a second evaluation, MMAE was conjugated to penetratin (AntP) peptide. The AntP peptide, with sequence H2N-[…]-CONH2 (SEQ ID NO:1) bearing a free Cys thiol at the C-terminus, was synthesized via standard Fmoc solid-phase peptide synthesis methods. This peptide was conjugated at a concentration of 25 uM to disulfide MMAE molecules with varying leaving groups (5 equivalents) in a buffered solution composed of 75 mM Tris, pH 8.5 and 10% DMF for ˜16 hours at room temperature. Extent of the reaction was measured by dividing the integrated area for the UV peak of the MMAE-AntP conjugate by the sum of all peaks (“% Product”). The ideal value for % Product is 100%. The results are reported in table 31 below wherein the wavy line for the leaving group represent the point of attachment to the disulfide bond, and “AntP % P” refers to penetratin (AntP) peptide % product.

[3] = pKa of thiol compounds
[4] = In vitro disulfide cleavage and immolation by incubation with cysteine or glutathione (LC/MS); assay type: physicochemical; conditions: for Percentage of all products: pH 7.0, 37° C.
Method: In a first phase of the experiment, disulfide cleavage and immolation by incubation with cysteine and glutathione—with the thiol concentrations mimic those in plasma and cancer cells—was investigated using unconjugated small molecule model systems with para-nitro-pyridyl disulfide-containing linker drug analogs 1, 2 and 11 below. In particular, cleavage and immolation was evaluated in vitro by incubation at […] with cysteine ([…] or 200 μM) or glutathione (GSH, 4 mM) in 100 mM Tris buffer pH 7.0 containing 5% methanol at 37° C. Aliquots were taken at specified time points and the samples were analyzed by LC/MS on Sciex TripleTOF 5600 on a Hypersil Gold C18 column (100×2.1, […], Thermo Scientific). The column was eluted by a gradient of buffer A (0.1% formic acid in 10 mM ammonium acetate) to buffer B (0.1% formic acid in 10 mM ammonium acetate in 90% acetonitrile), 5% B 0-0.5 min, 5-25% B 0.5-8 min, 25-75% B 8-13 min, and 75-95% B 13-13.5 min, 95% B 13.5-14.5 min, 95-5% B 14.5-15 min at 0.4 mL/min. Under these conditions, para-nitropyridyl thiol was eluted at 5.3 min. All products (compounds 1, 2, 11, 3a, 3b, 4a, 4b, 12a, 12 b, 6, 7, 13 and 8) were separated and characterized by LC/MS/MS in a positive ESI ion mode. All analytes had the protonated molecular MH^+ as the major species with little source fragmentation. Full scan accurate mass peak areas were used to estimate relative abundance of each component and the disappearance of 1, 2, and 11 estimated relative full scan peak areas was consistent with that estimated based on the relative abundance compared to time 0 by MS or UV. The results are reported in Table 15 below and the analytical results are presented in Table 16 below where “Cmpd” refers to compound, “RT” refers to retention time in minutes, and “Calc. Mass” refers to calculated mass. The relative abundance of disulfide cleavage and immolation products over time were evaluated and are disclosed in FIGS. 12A to 12C, 13A to 13C, 14A to 14C and 15A to 15C where the products were monitored by LC/MS from incubations of linker drugs 1, 2, and 11 at pH 7.0 and 37° C. in the presence of: 0.2 mM cysteine (FIGS. 12A, 12B and 12C); 0.03 mM cysteine (FIGS. 13A, 13B and 13C); 4 mM glutathione (FIGS. 14A, 14B and 14C); and 0.03 mM glutathione (FIGS. 15A, 15B and 15C). In FIGS. 12A to 12C, 13A to 13C, 14A to 14C and 15A to 15C, compound reference numbers 1, 2, 3a, 3b, 4a, 4b, 6, 7, 8, 11, 12a, 12b and 13 correspond to the structures below.

[5] = system: calf DNA; assay: DNA binding potential (incubation with calf DNA, extraction, LC/MS); conditions: 1 mg/mL calf DNA, 37° C., 1 hour
Method: For DNA binding analysis, compounds 7 and 8 were incubated at […] with 1 mg/mL calf DNA for 1 hour in 0.5 mL of 10 mM Bis-Tris, pH 7.1 at 37° C. Ethyl acetate (1 mL) was used to extract the reaction mixture twice by vortex (20 seconds) and centrifugation (4 min at 5,000×g). The combined organic extracts were concentrated under vacuum and reconstituted in 0.15 mL of 1:1 water/methanol before injection on LC/MS. The samples were analyzed by LC/MS/UV on Sciex TripleTOF 5600 on a Hypersil Gold C18 column (100×2.1, […], Thermo Scientific) in a positive ESI ion mode. The column was eluted by a gradient of buffer A (0.1% formic acid) to buffer B (0.1% formic acid in acetonitrile), 5% B 0-0.5 min, 5-25% B 0.5-8 min, 25-75% B 8-13 min, and 75-95% B 13-13.5 min, 95% B 13.5-14.5 min, 95-5% B 14.5-15 min at 0.4 mL/min.

[6] = system: target-expressing cell lines; conditions: target-expressing cell lines (Hartley 2011); cited from earlier work

SMILES | HAS CR (HSA Conjugation Ratio) [1] | AntP % P (penetratin (AntP) peptide % product) [2] [%] | other results
CC[C@H](C)[C@@H]([C@@H](CC(=O)N1CCC[C@H]1[C@H](OC)[C@@H](C)C(=O)N[C@H](C)[C@@H](O)c1ccccc1)OC)N(C)C(=O)[C@@H](NC(=O)[C@H](C(C)C)N(C)C(=O)OCC(C)(C)SSc1ncc(C(=O)O)n1C)C(C)C (X12-[NMeV]V[Dil][Dolaproine]-X2) | 0.55 | 4 | –
CC[C@H](C)[C@@H]([C@@H](CC(=O)N1CCC[C@H]1[C@H](OC)[C@@H](C)C(=O)N[C@H](C)[C@@H](O)c1ccccc1)OC)N(C)C(=O)[C@@H](NC(=O)[C@H](C(C)C)N(C)C(=O)OCC(C)(C)SSc1nc2cnccc2[nH]1)C(C)C (X13-[NMeV]V[Dil][Dolaproine]-X2) | 0.86 | 26 | –
CC[C@H](C)[C@@H]([C@@H](CC(=O)N1CCC[C@H]1[C@H](OC)[C@@H](C)C(=O)N[C@H](C)[C@@H](O)c1ccccc1)OC)N(C)C(=O)[C@@H](NC(=O)[C@H](C(C)C)N(C)C(=O)OCC(C)(C)SSc1nc2cc([N+](=O)[O-])ccc2[nH]1)C(C)C (X14-[NMeV]V[Dil][Dolaproine]-X2) | 0.69 | 26 | –
CC[C@H](C)[C@@H]([C@@H](CC(=O)N1CCC[C@H]1[C@H](OC)[C@@H](C)C(=O)N[C@H](C)[C@@H](O)c1ccccc1)OC)N(C)C(=O)[C@@H](NC(=O)[C@H](C(C)C)N(C)C(=O)OCC(C)(C)SSc1ccncc1C(=O)N(C)C)C(C)C (X16-[NMeV]V[Dil][Dolaproine]-X2) | 0.22 | 51 | –
CC[C@H](C)[C@@H]([C@@H](CC(=O)N1CCC[C@H]1[C@H](OC)[C@@H](C)C(=O)N[C@H](C)[C@@H](O)c1ccccc1)OC)N(C)C(=O)[C@@H](NC(=O)[C@H](C(C)C)N(C)C(=O)OCC(C)(C)SSc1nc2ccccc2n1C)C(C)C (X17-[NMeV]V[Dil][Dolaproine]-X2) | 0.87 | 7.5 | –
CC[C@H](C)[C@@H]([C@@H](CC(=O)N1CCC[C@H]1[C@H](OC)[C@@H](C)C(=O)N[C@H](C)[C@@H](O)c1ccccc1)OC)N(C)C(=O)[C@@H](NC(=O)[C@H](C(C)C)N(C)C(=O)OCC(C)(C)SSC(=N)N)C(C)C (X18-[NMeV]V[Dil][Dolaproine]-X2) | 0.98 | 90 | –
CC[C@H](C)[C@@H]([C@@H](CC(=O)N1CCC[C@H]1[C@H](OC)[C@@H](C)C(=O)N[C@H](C)[C@@H](O)c1ccccc1)OC)N(C)C(=O)[C@@H](NC(=O)[C@H](C(C)C)N(C)C(=O)OCC(C)(C)SSc1nc(C(=O)O)cn1C)C(C)C (X19-[NMeV]V[Dil][Dolaproine]-X2) | 0.38 | 4.9 | –
CC[C@H](C)[C@@H]([C@@H](CC(=O)N1CCC[C@H]1[C@H](OC)[C@@H](C)C(=O)N[C@H](C)[C@@H](O)c1ccccc1)OC)N(C)C(=O)[C@@H](NC(=O)[C@H](C(C)C)N(C)C(=O)OCC(C)(C)SSc1nncn1C)C(C)C (X20-[NMeV]V[Dil][Dolaproine]-X2) | 0.66 | 17 | –
CC[C@H](C)[C@@H]([C@@H](CC(=O)N1CCC[C@H]1[C@H](OC)[C@@H](C)C(=O)N[C@H](C)[C@@H](O)c1ccccc1)OC)N(C)C(=O)[C@@H](NC(=O)[C@H](C(C)C)N(C)C(=O)OCC(C)(C)SSc1ncc[nH]1)C(C)C (X21-[NMeV]V[Dil][Dolaproine]-X2) | 0.99 | 1.7 | –
CC[C@H](C)[C@@H]([C@@H](CC(=O)N1CCC[C@H]1[C@H](OC)[C@@H](C)C(=O)N[C@H](C)[C@@H](O)c1ccccc1)OC)N(C)C(=O)[C@@H](NC(=O)[C@H](C(C)C)N(C)C(=O)OCC(C)(C)SSc1nc2cccc(C(=O)O)c2[nH]1)C(C)C (X22-[NMeV]V[Dil][Dolaproine]-X2) | 0.34 | 25 | –
O=[N+]([O-])c1ccc(S)nc1 [Compound 5, para-nitropyridyl thiol] | – | – | pKa [3]: 4.7 to 4.8
C=C1C[C@H]2C=Nc3cc(OCCCCCOc4cc5c(cc4OC)C(=O)N4CC(=C)C[C@H]4[C@H](O)N5C(=O)OCC4(S)CC4)c(OC)cc3C(=O)N2C1 [Compound 7] | – | – | Percentage of all products ([4]; 30 μM cysteine, 1 h): 5.1%; Percentage of all products ([4]; 30 μM cysteine, 4 h): 9.7%; Percentage of all products ([4]; 30 μM cysteine, 24 h): 11.6%; Percentage of all products ([4]; 200 μM cysteine, 1 h): 44.7%; Percentage of all products ([4]; 200 μM cysteine, 4 h): 73.6%; Percentage of all products ([4]; 200 μM cysteine, 24 h): 87.3%; Percentage of all products ([4]; 4 mM GSH, 1 h): 80.8%; Percentage of all products ([4]; 4 mM GSH, 4 h): 89.7%; Percentage of all products ([4]; 4 mM GSH, 24 h): 92.3%; Immolation of thiol intermediate ([4]; incubation with cysteine or glutathione): did not appreciably immolate and appeared to be stable; DNA binding [5]: does not bind to DNA; pKa [3]: 4.7 to 4.8
C=C1C[C@H]2C=Nc3cc(OCCCCCOc4cc5c(cc4OC)C(=O)N4CC(=C)C[C@H]4C=N5)c(OC)cc3C(=O)N2C1 [Compound 8] | – | – | IC50 [6]: ~0.05 nM; DNA binding [5]: quickly binds to DNA; Fraction unextractable after incubation in DNA solution [5]: approximately 94%
